The record followed here is patent US12453759B2, “Di-thioester cationic lipids” (TRANSLATE BIO, INC., priority 2019, dated 2025).

The subject of this assay is hEPO protein expression. Kind of assay: In vivo expression of hEPO after IM injection of hEPO mRNA lipid nanoparticles (serum ELISA). Conditions: LNP with hEPO mRNA, cationic lipid, DMG-PEG2000, cholesterol, DOPE, single IM injection into gastrocnemius, 0.1 ug, male BALB/c mice, FIG. 1. On the procedure: Lipid nanoparticle formulations comprising human erythropoietin (hEPO) mRNA, a cationic Lipid, DMG-PEG2000, cholesterol and DOPE were administered intramuscularly to study mRNA delivery and resultant hEPO expression. Male BALB/c mice at 6-8 weeks old are given a single injection of the LNP formulations into the gastrocnemius muscle at a dosage level of 0.1 ug. Blood samples were collected at 6 and 24 hours post-dose. hEPO protein expression levels were measured in the sera samples by ELISA and presented in FIG. 1.

Consider `CCCCCCCCC(O)CN(CCSC(=O)[C@H]1CC[C@H](C(=O)SCCN(CC(O)CCCCCCCC)CC(O)CCCCCCCC)CC1)CC(O)CCCCCCCC` (stereo partly drawn) [Compound 79], for which the “in vivo protein production (hEPO protein expression levels in sera)” value (6 hours after administration) is on record as “high levels of in vivo protein production”. Turning to `CCCCCCCCCCC(O)CN(CCSC(=O)c1ccc(C(=O)SCCN(CC(O)CCCCCCCCCC)CC(O)CCCCCCCCCC)cc1)CC(O)CCCCCCCCCC` (stereo not drawn) [Compound 98], the “in vivo protein production (hEPO protein expression levels in sera)” value is listed as “high levels of in vivo protein production” (6 hours after administration) and “high levels of in vivo protein production” (24 hours after administration).
